Measurements taken from patent US7514438B2, “Melanin concentrating hormone receptor antagonist” (Amgen, Inc., priority 2003, dated 2009).
Like-named read-outs stand apart in the source and are kept apart here.

How the values were obtained:
[1] = target: T1, rat MCH 1 receptor (rMCH1R) (Rattus norvegicus, UniProt P97639); test: 125I-MCH ligand binding assay, rMCH; details: HEK 293 membranes, 0.2 nM 125I native-MCH
T1 construct: expressed in transfected cells; host or cells: HEK 293 (membranes)
Outline: (§1)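 HEK293 membranes expressing rat or human MCH1R (100 µg tissue) were incubated for 90 min at 30 °C with 0.2 nM 125I-native-MCH and test compound in HEPES/MgCl2/BSA buffer with protease inhibitors, pH 7.4. Non-specific binding used 1 µM cold MCH. Filter-bound radioactivity gave IC50 by nonlinear regression.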

rat MCH1 receptor [2] = target: T2, rat MCH1 receptor (Rattus norvegicus, UniProt P97639); test: HT-PS100 calcium mobilization functional assay; assay type: cell-based; parameters: expressed in transfected cells
human MCH receptor = target: T3, human MCH receptor (Homo sapiens, UniProt Q99705); test: hMCH FLIPR calcium mobilization assay; assay type: cell-based
T3 construct: expressed in transfected cells

[3] = target: T4, human MCH 1 receptor (hMCH1R) (Homo sapiens, UniProt Q99705); test: 125I-MCH ligand binding assay, hMCH; details: HEK 293 membranes, 0.2 nM 125I native-MCH
T4 construct: expressed in transfected cells; host or cells: HEK 293 (membranes)
Outline: as §1

rat MCH1 receptor [4] = target: T2, rat MCH1 receptor; test: rMCH FLIPR calcium mobilization assay (CHOK1-Gqi cells); assay type: cell-based; parameters: expressed in transfected cells; host or cells: CHOK1-Gqi; details: CHOK1-Gqi cells, rat MCH1 receptor, 100 μM or less list
Description: Pharmacological analyses were conducted using either a HT-PS100 device (Axiom Biotechnologies, San Diego, Calif.), which provides high-resolution dose-response fluorometric measurements of [Ca^++]i mobilization, or using a FLIPR® device (Molecular Devices, Sunnyvale, Calif.).
Materials: Pharmacological analysis was conducted using a FLIPR® device (Molecular Devices, Sunnyvale, Calif.). CHOK1-Gqi cells were stably transfected with the rat MCH1 receptor and maintained under G418 antibiotic pressure. FLIPR® assay buffer consisted of phenol red-free DMEM+2.5 mM probenecid. […]. Test compounds were prepared as 10 mM stocks in 100% DMSO and diluted to a top end working concentration of 10 μM in 96 well black, flat bottom, collagen-I coated plates (Becton Dickinson, Bedford, Mass.).
Methods: CHOK1-Gqi cells stably expressing MCH1R were maintained in Dulbeco's modified Eagle's medium (GIBCO/Life Technologies, Rockville, Md.) supplemented with 2 mM glutamine and 10% dialyzed fetal bovine serum (HyCLone, Logan, Utah) at 37° C., 5% CO2. Cells were harvested by 10′ treatment with Versene (GIBCO/Life Technologies) followed by trituration, washing twice with cold (4° C.) hybridoma medium (Serum/Protein free, with L-glutamine, sodium bicarbonate, MOPS buffer) (Sigma-Aldrich Corp, St. Louis, Mo.) and replated onto 96 well black, flat bottom, collagen-I coated plates to a density of 10,000 cells/well. The cells were then loaded with the fluorescent calcium indicator Fura-2 (Molecular Probes, Eugene, Oreg.) at 1.6 μM for 60′ at room temperature. The loaded cells were then washed twice with 90 μl/well of wash buffer (1×HBSS, 20 mM HEPES, 2.5 mM probenecid).
Receptor-stimulated intracellular calcium responses were detected using FLIPR® by monitoring increases in the Fura-2 fluorescence response.
Test compounds were screened for MCH1R activity in the FLIPR® for both agonist and antagonist action. Agonist mode challenges were conducted at a maximum gradient concentration of 1 μM. Antagonist activity was tested by 10 min pre-incubation of cells at a compound concentration of defined to be 300× the EC50 of MCH (typically 1 μM), with subsequent introduction of MCH at a concentration 5-fold of EC50 as determined in preliminary experiments. […].
Several fixed concentrations of antagonist compounds were prepared in 10-fold increments, and presented to the cells in a gradient of increasing MCH concentration. Values for compound pA2 were calculated by linear regression of MCH EC50s as a function of antagonist concentration.

[5] = 100 nM or less list, read-out: IC50 in the rMCH binding assay
[6] = 100 μM or less list, read-out: IC50 in the rMCH binding assay
[7] = 100 μM or less list, read-out: Ki in the hMCH FLIPR assay
[8] = 100 nM or less list, read-out: IC50 in the hMCH binding assay
[9] = 100 μM or less list, read-out: IC50 in the hMCH binding assay
[10] = read-out: Ki in the rMCH FLIPR assay
[11] = HEK 293 cells stably transfected with rat MCH1 receptor, 100 nM or less list, read-out: Ki in the HT-PS100 assay
[12] = 100 nM or less list, read-out: Ki in the hMCH FLIPR assay

T2 sequence (P97639 whole entry): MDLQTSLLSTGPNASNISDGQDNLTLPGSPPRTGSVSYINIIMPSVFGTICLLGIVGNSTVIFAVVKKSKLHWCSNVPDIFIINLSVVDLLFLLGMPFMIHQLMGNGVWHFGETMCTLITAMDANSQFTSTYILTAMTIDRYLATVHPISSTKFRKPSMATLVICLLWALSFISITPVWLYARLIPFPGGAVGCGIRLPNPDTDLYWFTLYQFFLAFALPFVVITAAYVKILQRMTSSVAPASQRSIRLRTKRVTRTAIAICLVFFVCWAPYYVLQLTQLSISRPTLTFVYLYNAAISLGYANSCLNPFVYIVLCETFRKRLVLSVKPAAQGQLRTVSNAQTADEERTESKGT
T1 sequence (P97639 whole entry): as above
T3 sequence (Q99705 whole entry): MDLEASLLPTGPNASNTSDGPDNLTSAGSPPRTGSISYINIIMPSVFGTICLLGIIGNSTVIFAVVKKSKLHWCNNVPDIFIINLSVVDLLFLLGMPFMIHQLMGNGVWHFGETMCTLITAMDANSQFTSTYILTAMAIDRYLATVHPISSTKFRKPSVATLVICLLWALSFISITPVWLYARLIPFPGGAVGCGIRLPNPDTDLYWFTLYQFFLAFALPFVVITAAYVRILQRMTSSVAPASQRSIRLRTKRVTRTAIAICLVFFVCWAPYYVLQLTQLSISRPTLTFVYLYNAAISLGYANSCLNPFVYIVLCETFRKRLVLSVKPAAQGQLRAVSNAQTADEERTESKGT
T4 sequence (Q99705 whole entry): as above

For `Cc1cccc(C)c1-n1nnnc1[C@H](c1cccc(O)c1)N1CCN(C/C=C/c2ccccc2)CC1` (racemic) [Compound 82, 3-{[1-(2,6-dimethylphenyl)-1H-tetrazol-5-yl]-[4-(3-phenylallyl)piperazin-1-yl]methyl}phenol], the IC50 ([1]; IC50 in the rMCH binding assay, 100 μM or less list) was ≤ 100 µM, the Ki (rat MCH1 receptor [2]) was ≤ 0.1 µM and the Ki (human MCH receptor; Ki in the hMCH FLIPR assay, 100 nM or less list) was ≤ 0.1 µM. For the same compound, the Ki (human MCH receptor; Ki in the hMCH FLIPR assay, 100 μM or less list) was ≤ 100 µM, the IC50 ([3]; IC50 in the hMCH binding assay, 100 μM or less list) was ≤ 100 µM and the Ki (rat MCH1 receptor [4]; Ki in the rMCH FLIPR assay) was ≤ 100 µM.

For `Cc1cccc(C)c1-n1nnnc1[C@H](c1cccc(C(F)(F)F)c1)N1CCN(CC=C(c2ccccc2)c2ccccc2)CC1` (racemic) [Compound 144, 1-[[1-(2,6-dimethylphenyl)-1H-tetrazol-5-yl]-(3-trifluoromethylphenyl)methyl]-4-(3,3-diphenylallyl)piperazine], the IC50 [1, 5] was ≤ 0.1 µM, the IC50 [1, 6] was ≤ 100 µM and the Ki (human MCH receptor; [7]) was ≤ 100 µM. For the same compound, the IC50 [3, 8] was ≤ 0.1 µM, the IC50 [3, 9] was ≤ 100 µM and the Ki (rat MCH1 receptor [4]; [10]) was ≤ 100 µM.

For `Cc1cccc(C)c1-n1nnnc1[C@H](c1cccc(C#N)c1)N1CCN(C/C=C/c2ccccc2)CC1` (stereo in doubt) [Compound 133, 3-{[1-(2,6-dimethylphenyl)-1H-tetrazol-5-yl]-[4-(3-phenylallyl)piperazin-1-yl]methyl}benzonitrile], the IC50 [1, 6] was ≤ 100 µM, the Ki (human MCH receptor; [7]) was ≤ 100 µM and the IC50 [3, 9] was ≤ 100 µM. For the same compound, the Ki (rat MCH1 receptor [4]; [10]) was ≤ 100 µM.

With `Cc1cccc(C)c1-n1nnnc1[C@H](c1ccccc1)N1CCN(C/C=C/c2ccccc2)CC1` (racemic) [Compound 4, 1-{[1-(2,6-dimethyiphenyl)-1H-tetrazol-5-yl]phenylmethyl}-4-(3-phenylallyl)piperazine] the IC50 [1, 6] was ≤ 100 µM, the Ki (rat MCH1 receptor [2]; [11]) was ≤ 0.1 µM and the Ki (human MCH receptor; [12]) was ≤ 0.1 µM. For the same compound, the Ki (human MCH receptor; [7]) was ≤ 100 µM, the IC50 [3, 8] was ≤ 0.1 µM and the IC50 [3, 9] was ≤ 100 µM. The Ki (rat MCH1 receptor [4]; [10]) was ≤ 100 µM.

For `Cc1cccc(C)c1-n1nnnc1[C@H](c1ccc(-c2ccccc2)cc1)N1CCN(C/C=C/c2ccccc2)CC1` (racemic) [Compound 64, 1-{biphenyl-4-yl-[1-(2,6-dimethylphenyl)-1H-tetrazol-5-yl]methyl}-4-(3-phenylallyl)piperazine], the IC50 [1, 6] was ≤ 100 µM, the Ki (rat MCH1 receptor [2]; [11]) was ≤ 0.1 µM and the IC50 [3, 8] was ≤ 0.1 µM. For the same compound, the IC50 [3, 9] was ≤ 100 µM and the Ki (rat MCH1 receptor [4]; [10]) was ≤ 100 µM.

`Cc1cccc(C)c1-n1nnnc1[C@H](c1ccccc1)N1CCN(C/C=C/c2ccccc2)CC1` [Compound 1, 1-{[1-(2,6-dimethyiphenyl)-1H-tetrazol-5-yl]phenylmethyl}-4-(3-phenylallyl)piperazine] was tested, and the IC50 [1, 5] was ≤ 0.1 µM, the IC50 [1, 6] was ≤ 100 µM and the Ki (rat MCH1 receptor [2]; [11]) was ≤ 0.1 µM. For the same compound, the Ki (human MCH receptor; [7]) was ≤ 100 µM, the IC50 [3, 8] was ≤ 0.1 µM and the IC50 [3, 9] was ≤ 100 µM. For the same compound, the Ki (rat MCH1 receptor [4]; [10]) was ≤ 100 µM.

For `Cc1cccc(C)c1-n1nnnc1[C@H](c1cccc(F)c1)N1CCN(C/C=C/c2ccccc2)CC1` (racemic) [Compound 48, 1-[[1-(2,6-dimethyiphenyl)-1H-tetrazol-5-yl]-(3-fluorophenyl)methyl]-4-(3-phenylallyl)piperazine], the IC50 [1, 6] was ≤ 100 µM, the Ki (rat MCH1 receptor [2]; [11]) was ≤ 0.1 µM and the Ki (human MCH receptor; [12]) was ≤ 0.1 µM. The Ki (human MCH receptor; [7]) was ≤ 100 µM, the IC50 [3, 9] was ≤ 100 µM and the Ki (rat MCH1 receptor [4]; [10]) was ≤ 100 µM.

With `Cc1cccc(C)c1-n1nnnc1[C@H](c1cccc(OCCO)c1)N1CCN(C/C=C/c2ccccc2)CC1` (racemic) [Compound 84, 2-(3-{[1-(2,6-dimethylphenyl)-1H-tetrazol-5-yl]-[4-(3-phenylallyl)piperazin-1-yl]methyl}phenoxy)ethanol] the IC50 [1, 5] was ≤ 0.1 µM, the IC50 [1, 6] was ≤ 100 µM and the Ki (rat MCH1 receptor [2]; [11]) was ≤ 0.1 µM. For the same compound, the Ki (human MCH receptor; [7]) was ≤ 100 µM, the IC50 [3, 8] was ≤ 0.1 µM and the IC50 [3, 9] was ≤ 100 µM. For the same compound, the Ki (rat MCH1 receptor [4]; [10]) was ≤ 100 µM.

`Cc1cccc(C)c1-n1nnnc1[C@H](c1cccc(C#N)c1)N1CCN(C/C=C/c2ccccc2)CC1` (racemic) [Compound 79, 3-{[1-(2,6-dimethylphenyl)-1H-tetrazol-5-yl]-[4-(3-phenylallyl)piperazin-1-yl]methyl}benzonitrile] was tested, and the IC50 [1, 5] was ≤ 0.1 µM, the IC50 [1, 6] was ≤ 100 µM and the Ki (rat MCH1 receptor [2]; [11]) was ≤ 0.1 µM. For the same compound, the Ki (human MCH receptor; [12]) was ≤ 0.1 µM, the Ki (human MCH receptor; [7]) was ≤ 100 µM and the IC50 [3, 9] was ≤ 100 µM. For the same compound, the Ki (rat MCH1 receptor [4]; [10]) was ≤ 100 µM.

With `Cc1cccc(C)c1-n1nnnc1[C@H](c1ccc(Cl)cc1)N1CCN(C/C=C/c2ccccc2)CC1` (racemic) [Compound 57, 1-{(4-chlorophenyl)-[1-(2,6-dimethyiphenyl)-1H-tetrazol-5-yl]methyl}-4-(3-phenylallyl)piperazine] the IC50 [1, 6] was ≤ 100 µM, the Ki (rat MCH1 receptor [2]; [11]) was ≤ 0.1 µM and the Ki (human MCH receptor; [7]) was ≤ 100 µM. For the same compound, the IC50 [3, 9] was ≤ 100 µM and the Ki (rat MCH1 receptor [4]; [10]) was ≤ 100 µM.

In the case of `Cc1cccc(C)c1-n1nnnc1[C@@H](c1ccc(-n2ccnc2)cc1)N1CCN(C/C=C/c2ccccc2)CC1` (stereo in doubt) [Compound 134, 1-[[1-(2,6-dimethylphenyl)-1H-tetrazol-5-yl]-(4-imidazol-1-ylphenyl)methyl]-4-(3-phenylallyl)piperazine], the IC50 [1, 5] is reported as ≤ 0.1 µM, the IC50 [1, 6] is reported as ≤ 100 µM and the Ki (human MCH receptor; [7]) is reported as ≤ 100 µM. The IC50 [3, 8] was ≤ 0.1 µM, the IC50 [3, 9] was ≤ 100 µM and the Ki (rat MCH1 receptor [4]; [10]) was ≤ 100 µM.

For `Cc1cccc(C)c1-n1nnnc1[C@H](c1cccc(-c2ccccc2)c1)N1CCN(C/C=C/c2ccccc2)CC1` (racemic) [Compound 143, 1-{biphenyl-3-yl-[1-(2,6-dimethylphenyl)-1H-tetrazol-5-yl]methyl}-4-(3-phenylallyl)piperazine], the IC50 [1, 6] was ≤ 100 µM, the Ki (human MCH receptor; [7]) was ≤ 100 µM and the IC50 [3, 9] was ≤ 100 µM. For the same compound, the Ki (rat MCH1 receptor [4]; [10]) was ≤ 100 µM.

In the case of `Cc1cccc(C)c1-n1nnnc1[C@H](c1cccc(C(F)(F)F)c1)N1CCN(Cc2c[nH]c3ccccc23)CC1` (racemic) [Compound 150, 3-{4-[[1-(2,6-dimethylphenyl)-1H-tetrazol-5-yl]-(3-trifluoromethylphenyl)methyl]piperazin-1-ylmethyl}-1H-indole], the IC50 [1, 6] is reported as ≤ 100 µM, the Ki (human MCH receptor; [7]) is reported as ≤ 100 µM and the IC50 [3, 9] is reported as ≤ 100 µM. The Ki (rat MCH1 receptor [4]; [10]) was ≤ 100 µM.

For `C(=C\c1ccccc1)/CN1CCN([C@@H](c2ccccc2)c2nnnn2-c2ccc3[nH]ccc3c2)CC1` (racemic) [Compound 20], the IC50 [1, 6] was ≤ 100 µM, the Ki (human MCH receptor; [7]) was ≤ 100 µM and the IC50 [3, 8] was ≤ 0.1 µM. For the same compound, the IC50 [3, 9] was ≤ 100 µM and the Ki (rat MCH1 receptor [4]; [10]) was ≤ 100 µM.

`Cc1cccc(C)c1-n1nnnc1[C@H](c1ccc(Oc2ccccc2)cc1)N1CCN(C/C=C/c2ccccc2)CC1` (racemic) [Compound 76, 1-[[1-(2,6-dimethylphenyl)-1H-tetrazol-5-yl]-(4-phenoxyphenyl)methyl]-4-(3-phenylallyl)piperazine] was tested, and the IC50 [1, 6] was ≤ 100 µM, the Ki (rat MCH1 receptor [2]; [11]) was ≤ 0.1 µM and the IC50 [3, 8] was ≤ 0.1 µM. The IC50 [3, 9] was ≤ 100 µM and the Ki (rat MCH1 receptor [4]; [10]) was ≤ 100 µM.

For `Cc1cccc(C)c1-n1nnnc1[C@H](c1cccc(C(F)(F)F)c1)N1CCN(C/C=C/c2ccccc2O)CC1` (racemic) [Compound 151, 2-(3-{4-[[1-(2,6-dimethylphenyl)-1H-tetrazol-5-yl]-(3-trifluoromethylphenyl)methyl]piperazin-1-yl}propenyl)phenol], the IC50 [1, 6] was ≤ 100 µM, the Ki (human MCH receptor; [7]) was ≤ 100 µM and the IC50 [3, 9] was ≤ 100 µM. The Ki (rat MCH1 receptor [4]; [10]) was ≤ 100 µM.
